Data set [1] is described as follows: logP determination by HPLC on reversed-phase column (EEC Directive 79/831 Annex V.A8). In kind it is physicochemical. The following applies: reversed-phase C18 HPLC column; acidic range (pH 2.3), marked a); 0.1% aqueous phosphoric acid/acetonitrile gradient; reversed-phase C 18; 43° C. The protocol:
The logP values given in the table were determined in accordance with EEC Directive 79/831 Annex V.A8 by HPLC (High Performance Liquid Chromatography) on a reversed-phase column (C 18). Temperature: 43° C. (a) Mobile phases for the determination in the acidic range (pH 2.3): 0.1% aqueous phosphoric acid, acetonitrile; linear gradient from 10% acetonitrile to 90% acetonitrile—the corresponding measurement results in table 1 are marked a). (b) Mobile phases for the determination in the neutral range (pH 7.5): 0.01-molar aqueous phosphate buffer solution, acetonitrile; linear gradient from 10% acetonitrile to 90% acetonitrile—the corresponding measurement results in table 1 are marked b). Calibration was carried out using unbranched alkan-2-ones (having 3 to 16 carbon atoms) with known logP values (determination of the logP values by the retention times using linear interpolation between two successive alkanones).

The test system of data set [2] is larvae of the mustard beetle (Phaedon cochleariae). The data set is described as follows: Phaedon test (spray treatment). The data set is classed as in vivo. The following applies: for activity (kill of beetle larvae): Chinese cabbage disks sprayed, populated with Phaedon cochleariae larvae, result in words; for pest or weed control at 500 g/ha / pest or weed control at 100 g/ha: Phaedon cochleariae, 168 h, after 7 d, spray treatment, read-out: Kill rate in % after 7 d; for pest or weed control at 500 g/ha: active compound concentration 500 g/ha; for pest or weed control at 100 g/ha: active compound concentration 100 g/ha. The protocol: (§1) Phaedon Test (Spray Treatment) [table] To produce a suitable preparation of active compound, 1 part by weight of active compound is mixed with the stated amounts of solvents and emulsifier, and the concentrate is diluted with emulsifier-containing water to the desired concentration. Disks of Chinese cabbage (Brassica pekinensis) are sprayed with a preparation of active compound of the desired concentration and, once they have dried, populated with larvae of the mustard beetle (Phaedon cochleariae). After the desired period of time, the activity in % is determined. 100% means that all beetle larvae have been killed; 0% means that none of the beetle larvae have been killed.

In data set [3] the test system is caterpillars of the armyworm (Spodoptera frugiperda). The data set is described as follows: Spodoptera frugiperda test (spray treatment). Conditions: for pest or weed control at 500 g/ha / pest or weed control at 100 g/ha: Spodoptera frugiperda, 168 h, after 7 d, spray treatment, read-out: Kill rate in % after 7 d; for pest or weed control at 500 g/ha: active compound concentration 500 g/ha; for activity (kill of caterpillars): corn leaf disks sprayed, populated with Spodoptera frugiperda caterpillars, result in words; for pest or weed control at 100 g/ha: active compound concentration 100 g/ha. In kind it is in vivo. The procedure:
Spodoptera Frugiperda Test (Spray Treatment) [table] To produce a suitable preparation of active compound, 1 part by weight of active compound is mixed with, the stated amounts of solvents and emulsifier, and the concentrate is diluted with emulsifier-containing water to the desired concentration. Disks of corn leaves (Zea mays) are sprayed with a preparation of active compound of the desired concentration and, after they have dried, populated with caterpillars of the armyworm (Spodoptera frugiperda). After the desired period of time, the activity in % is determined. 100% means that all caterpillars have been killed; 0% means that none of the caterpillars have been killed.

Data set [4] relates to greenhouse red spidermite (Tetranychus urticae). The data set is described as follows: Tetranychus test (OP-resistant/spray treatment). The data set is classed as in vivo. The following applies: for pest or weed control at 100 g/ha / pest or weed control at 500 g/ha: Tetranychus urticae, 120 h, after 5 d, OP-resistant, spray treatment, read-out: Kill rate in % after 5 d; for pest or weed control at 100 g/ha: active compound concentration 100 g/ha; for activity (kill of spidermites): bean leaf disks infested by all stages of Tetranychus urticae (OP-resistant), sprayed, result in words; for pest or weed control at 500 g/ha: active compound concentration 500 g/ha. The protocol: Tetranychus Test (OP-Resistant/Spray Treatment)
To produce a suitable preparation of active compound, 1 part by weight of active compound is mixed with the stated amounts of solvents and emulsifier, and the concentrate is diluted with emulsifier-containing water to the desired concentration.
Disks of bean leaves (Phaseolus vulgaris) which are infested by all stages of the greenhouse red spidermite (Tetranychus urticae) are sprayed with a preparation of active compound of the desired concentration.
After the desired period of time, the activity in % is determined. 100% means that all spidermites have been killed; 0% means that none of the spidermites have been killed.

The test system of data set [5] is green peach aphid (Myzus persicae). The data set is described as follows: Myzus test (spray treatment). In kind it is in vivo. Conditions: for activity (kill of aphids): Chinese cabbage disks infested by all stages of Myzus persicae, sprayed, result in words; for pest or weed control at 500 g/ha: active compound concentration 500 g/ha. The protocol: as §1, with “Myzus” for “Phaedon”, “pekinensis) which are infested by all stages of the green peach aphid (Myzus persicae)” for “pekinensis)”, “concentration.” for “concentration and, once they have dried, populated with larvae of the mustard beetle (Phaedon cochleariae).”, “aphids” for “beetle larvae”

The mark [6] stands for this setting: Myzus persicae, 120 h, after 5 d, spray treatment, read-out: Kill rate in % after 5 d.

Usually chromatographic logP stands for a lipophilicity value derived from retention on a column. The compound `CCC1=NN(C(=S)NCc2ccccc2F)C(O)(C(F)(F)F)C1` (centres unmarked) [Example 55] returned a chromatographic logP in data set [1] of 3.88. In addition, in data set [2], the “activity (kill of beetle larvae)” value is recorded as “good activity” and the pest or weed control at 500 g/ha was 100%. For the same compound, in data set [3], the pest or weed control at 500 g/ha amounted to 100% and the “activity (kill of caterpillars)” value is listed as “good activity”. Besides, in data set [4], the pest or weed control at 100 g/ha was found to be 90% and the “activity (kill of spidermites)” value is recorded as “good activity”.

In turn, `CC(C)(C)C1=NN(C(=S)NCc2ccc(Cl)cc2)C(O)(C(F)(F)F)C1` (centres unmarked) [Example 75] showed a chromatographic logP in data set [1] of 4.9. For the same compound, in data set [2], the “activity (kill of beetle larvae)” value is “good activity” and the pest or weed control at 100 g/ha amounted to 100%. Moreover, in data set [3], the pest or weed control at 100 g/ha was 100% and the “activity (kill of caterpillars)” value was “good activity”. Moreover, in data set [4], the pest or weed control at 100 g/ha was 100% and the “activity (kill of spidermites)” value is on record as “good activity”.

`CC(C)CC1=NN(C(=S)Nc2ccccc2Cl)C(O)(C(F)(F)F)C1` (centres unmarked) [Example 24] gave a chromatographic logP in data set [1] of 4.6. In data set [5], the “activity (kill of aphids)” value is listed as “good activity”. Moreover, the pest or weed control at 500 g/ha in data set [5] (setting [6]) was found to be 90%; in data set [3], 100%; in data set [4], 90%. The “activity (kill of caterpillars)” value in data set [3] is reported as “good activity”. In addition, in data set [4], the “activity (kill of spidermites)” value is given as “good activity”.

`CCC1=NN(C(=O)Nc2ccc(OC(F)(F)F)cc2)C(O)(C(F)(F)F)C1` (centres unmarked) [Example 12] gave a chromatographic logP in data set [1] of 3.74. Further, the “activity (kill of aphids)” value in data set [5] is reported as “good activity”. Also, the pest or weed control at 500 g/ha in data set [5] (setting [6]) worked out at 100%.

As for `CC(C)CC1=NN(C(=S)Nc2ccc(OC(F)(F)F)cc2)C(O)(C(F)(F)F)C1` (centres unmarked) [Example 22], the chromatographic logP in data set [1] is 4.42. In addition, in data set [4], the pest or weed control at 500 g/ha is 90% and the “activity (kill of spidermites)” value was “good activity”.

Regarding `CCC1=NN(C(=S)NCc2ccccc2Cl)C(O)(C(F)(F)F)C1` (centres unmarked) [Example 56], the chromatographic logP in data set [1] was determined as 4.25. In addition, in data set [2], the “activity (kill of beetle larvae)” value is “good activity” and the pest or weed control at 500 g/ha came out at 100%. In data set [4], the pest or weed control at 100 g/ha came to 90% and the “activity (kill of spidermites)” value is “good activity”.

`COc1ccccc1NC(=S)N1N=C(C(C)C)CC1(O)C(F)(F)F` (centres unmarked) [Example 30] gave a chromatographic logP in data set [1] of 4.23. In data set [2], the “activity (kill of beetle larvae)” value is “good activity” and the pest or weed control at 500 g/ha was 100%. In data set [4], the pest or weed control at 500 g/ha worked out at 90% and the “activity (kill of spidermites)” value is “good activity”.

Take `CC1=NN(C(=S)Nc2ccc(OC(F)(F)F)cc2)C(O)(C(F)(F)F)C1` (centres unmarked) [Example 106]: the chromatographic logP in data set [1] was determined as 3.37. Also, in data set [4], the pest or weed control at 100 g/ha worked out at 100% and the “activity (kill of spidermites)” value is given as “good activity”.

Compound `Cc1ccc(NC(=O)N2N=C(C(C)(C)C)CC2(O)C(F)(F)F)cc1` (centres unmarked) [Example 70] registered a chromatographic logP in data set [1] of 4.05. Moreover, the “activity (kill of aphids)” value in data set [5] is “good activity”. Further, the pest or weed control at 100 g/ha in data set [5] (Myzus persicae, 120 h, active compound concentration 100 g/ha, after 5 d, spray treatment, read-out: Kill rate in % after 5 d) was 100%.

The compound `CCC1=NN(C(=S)Nc2ccccc2F)C(O)(C(F)(F)F)C1` (centres unmarked) [Example 40] showed a chromatographic logP in data set [1] of 3.51. Further, the “activity (kill of aphids)” value in data set [5] is “good activity”. Besides, the pest or weed control at 500 g/ha in data set [5] (setting [6]) was 90%.

In turn, `CC1=NN(C(=S)NCCc2ccc(Cl)cc2)C(O)(C(F)(F)F)C1` (centres unmarked) [Example 126] had a chromatographic logP in data set [1] of 4.24. Also, in data set [4], the pest or weed control at 100 g/ha came out at 90% and the “activity (kill of spidermites)” value was “good activity”.

The compound `CC(C)C1=NN(C(=S)NC2CCCCC2)C(O)(C(F)(F)F)C1` (centres unmarked) [Example 44] yielded a chromatographic logP in data set [1] of 4.94. In data set [2], the “activity (kill of beetle larvae)” value was “good activity” and the pest or weed control at 500 g/ha is 100%. Further, in data set [3], the pest or weed control at 500 g/ha was found to be 100% and the “activity (kill of caterpillars)” value is “good activity”. Moreover, in data set [4], the pest or weed control at 500 g/ha was found to be 90% and the “activity (kill of spidermites)” value is reported as “good activity”.

`CC(C)C1=NN(C(=S)Nc2ccccc2[N+](=O)[O-])C(O)(C(F)(F)F)C1` (centres unmarked) [Example 31] came in with a chromatographic logP in data set [1] of 4.04. Moreover, the “activity (kill of aphids)” value in data set [5] is reported as “good activity”. For the same compound, the pest or weed control at 500 g/ha in data set [5] (setting [6]), in data set [2] and in data set [3] was 100% each time. Further, the “activity (kill of beetle larvae)” value in data set [2] was “good activity”. Further, in data set [3], the “activity (kill of caterpillars)” value is “good activity”.

As to `CC(C)C1=NN(C(=S)Nc2cc(Cl)ccc2Cl)C(O)(C(F)(F)F)C1` (centres unmarked) [Example 33], the chromatographic logP in data set [1] is 4.87. Moreover, the “activity (kill of aphids)” value in data set [5] was “good activity”. The pest or weed control at 500 g/ha in data set [5] (setting [6]) is 100%. Further, in data set [2], the “activity (kill of beetle larvae)” value is reported as “good activity” and the pest or weed control at 500 g/ha was 100%.

In data set [1], `CC1=NN(C(=O)Nc2ccc(OC(F)(F)F)cc2)C(O)(C(F)(F)F)C1` (centres unmarked) [Example 46] registered a chromatographic logP of 3.35. In addition, in data set [5], the “activity (kill of aphids)” value was “good activity”. Also, the pest or weed control at 500 g/ha in data set [5] (setting [6]) was 90%.

Turning to `CC(C)(C)C1=NN(C(=S)Nc2ccc(Cl)cc2)C(O)(C(F)(F)F)C1` (centres unmarked) [Example 74], in data set [1], the chromatographic logP is 4.75. In data set [2], the “activity (kill of beetle larvae)” value is given as “good activity” and the pest or weed control at 100 g/ha was 100%. In addition, in data set [3], the pest or weed control at 100 g/ha was determined as 100% and the “activity (kill of caterpillars)” value is reported as “good activity”. In data set [4], the pest or weed control at 100 g/ha is 100% and the “activity (kill of spidermites)” value is “good activity”.

In the case of `CC1=NN(C(=S)Nc2ccc(Cl)cc2Cl)C(O)(C(F)(F)F)C1` (centres unmarked) [Example 118], the chromatographic logP in data set [1] stood at 3.97. In data set [4], the pest or weed control at 100 g/ha was 90% and the “activity (kill of spidermites)” value is “good activity”.

Compound `CC(C)C1=NN(C(=S)Nc2ccccc2Cl)C(O)(C(F)(F)F)C1` (centres unmarked) [Example 20] showed a chromatographic logP in data set [1] of 4.28. In addition, the “activity (kill of aphids)” value in data set [5] is reported as “good activity”. Besides, the pest or weed control at 500 g/ha in data set [5] (setting [6]) was 100%. In addition, in data set [3], the pest or weed control at 500 g/ha worked out at 100% and the “activity (kill of caterpillars)” value is on record as “good activity”.

Regarding `CCC1=NN(C(=S)Nc2ccccc2Cl)C(O)(C(F)(F)F)C1` (centres unmarked) [Example 15], the chromatographic logP in data set [1] was 3.85. In addition, the “activity (kill of aphids)” value in data set [5] was “good activity”. Further, the pest or weed control at 500 g/ha in data set [5] (setting [6]) amounted to 90%.
